Experimental data reported in patent US20240108740A1, “THERAPEUTIC COMPOSITIONS INCLUDING SPN10 AND USES THEREOF” (Stealth BioTherapeutics Inc., priority 2022, published 2024).
Residues, ends and D or L forms follow the SMILES beside them.

Assays:
[1] = test system: Sprague Dawley rats; assay: Example 54: metabolic syndrome (HFD/STZ); type: in vivo, rat; conditions: 10 weeks of administration
Procedure: Sprague Dawley rats will be fed with a high-fat diet (HFD) for 6 weeks and then administered a single dose of STZ (30 mg/kg). The rats will be maintained on HFD until 14 weeks after STZ administration. Control subjects fed normal rat chow (NRC) for 6 weeks will be administered citrate buffer without STZ. After 5 months, diabetic subjects will be treated with peptide conjugates (10 mg/kg, 3 mg/kg, or 1 mg/kg s.c.q.d. (subcutaneously, once daily)), aromatic-cationic peptides (an equivalent molar dose of aromatic-cationic peptide based on the concentration of the aromatic-cationic peptide administered in the peptide conjugate group), SPN10(s) (an equivalent molar dose of SPN10 based on the concentration of SPN10 administered in the peptide conjugate group), SPN10(s) in combination with aromatic-cationic peptides (e.g., an equivalent molar dose of SPN10 based on the concentration of SPN10 administered in the peptide conjugate treatment group and an equivalent molar dose of aromatic-cationic peptide based on the concentration of aromatic-cationic peptide administered in the peptide conjugate treatment group) or control vehicle (saline) 5 days per week for 10 weeks. The study groups will be as follows: • Group A: HFD/STZ+peptide conjugates 10 mg/kg s.c.q.d. (Mon-Fri.), n=12; • Group B: HFD/STZ+peptide conjugates 3 mg/kg s.c.q.d. […]

[2] = test system: high-fat fed rats; assay: Example 34: insulin resistance in rats fed a high-fat diet; type: in vivo, rat
Procedure: On the day of testing, food will be removed 10 hours prior to administration of a 2 g/kg glucose solution via oral gavage. Glucose levels will be determined on whole blood samples (Lifescan, Milpitas, CA, U.S.A.). Serum insulin levels will be determined using a rat/mouse ELISA kit (Linco Research, St. Charles, MO, U.S.A.). Fasting data will be used to determine homeostatic model assessment (HOMA)-calculated as fasting insulin (mU/mL)×fasting glucose (mM)/22.5.
To further assess insulin sensitivity, the phosphorylation state of the insulin signaling protein Akt in skeletal muscle will be measured 1) following a 10 hour fast, and 2) 1 hour after receiving an oral glucose load. It is anticipated that in response to glucose ingestion, Akt phosphorylation will increase in skeletal muscle of standard chow-fed controls but will remain essentially unchanged in high-fat fed rats, confirming the presence of insulin resistance at the level of insulin signaling.

N=C(N)NCCC[C@H](NC(=O)[C@@H](N)Cc1c[nH]c2ccccc12)C(=O)N[C@@H](Cc1c[nH]c2ccccc12)C(=O)N[C@@H](CCCCN)C(N)=O [SPN10, H-L-Trp-L-Arg-L-Trp-L-Lys-NH2] (H-WRWK-NH2)
blood triglyceride level of HFD/STZ rats [1]: reduced to normal levels
blood glucose and insulin responses to the oral glucose challenge ([2]; 2 g/kg glucose, six weeks high-fat diet): normalize blood glucose and insulin responses
Akt phosphorylation in skeletal muscle in response to glucose ingestion ([2]; rat, in vivo): increase Akt phosphorylation
development of insulin resistance (HOMA) ([2]; rat, in vivo): suppress the development of insulin resistance
